The record followed here is patent publication US6528511B2, “Partial fatty acid oxidation inhibitors in the treatment of congestive heart failure” (CV Therapeutics, Inc., priority 2000, dated 2003).

Where two headings read alike, the source gives them in different places.

One data set relates to dogs with heart failure. As to the kind of experiment: Canine model of congestive heart failure (intracoronary microembolizations), hemodynamic and angiographic measurements. Type of data set: in vivo, dog. The note with it: iv bolus 0.5 mg/kg then 1.0 mg/kg/hr for 40 min. The procedure: The efficacy of ranolazine was studied using a canine model of congestive heart failure. Chronic LV dysfunction and failure was produced by multiple sequential intracoronary embolizations with polystyrene Latex microspheres (70-102 μm in diameter) which results in loss of viable myocardium. In the present study, 13 healthy mongrel dogs weighing between 23 and 25 kg underwent coronary microembolizations to produce heart failure. Intracoronary microembolizations were performed during cardiac catheterization under general anesthesia and sterile conditions. The anesthesia regimen consisted of intravenous oxymorphone hydrochloride (0.22 mg/kg), diazepam (0.17 mg/kg) and sodium pentobarbital (150-250 mg to effect). Dogs underwent an average of 5 microembolization procedures performed 1 to 3 weeks apart. Embolizations were discontinued when LV ejection fraction, determined angiographically, was <30%. Dogs were maintained for a period of 2-3 weeks to ensure that infarctions produced by the last microembolization were completely healed before studies were initiated. […] (The study was approved by the Henry Ford Health System Care of Experimental Animals Committee and conformed to the “Position of the American Heart Association on Research Animal Use,” adopted by the Association in November 1984, and to the Guiding Principles of the American Physiological Society on use of research animals). On the day of the study and following general anesthesia, aortic and LV pressure were measured with a catheter-tip micromanometer (Millar Instruments, Houston, Tex.) positioned through a femoral arteriotomy. Single-plane left ventriculograms were obtained during each catheterization after completion of the hemodynamic measurements with the dog placed on its right side. Ventriculograms were recorded on 35 mm cine film at 30 frames per second during the injection of 20 ml of contrast material (Reno-M-60, Squib, Princeton, N.J.). Correction for image magnification was made with a calibrated radiopaque grid placed at the level of the LV. Left ventricular end-systolic and end-diastolic volumes were calculated from ventricular silhouettes using the area-length method. The LV ejection fraction was calculated as the ratio of the difference of end-diastolic volume and end-systolic volume to end-diastolic volume times 100. Stroke volume was calculated as the difference between LV end-systolic and end-diastolic volumes obtained from the ventriculogram. Cardiac output was calculated as the product of stroke volume and heart rate. Extra systolic and post-extra systolic beats were excluded from all analyses. In each normal or heart failure dog, ranolazine dihydrochloride was administered in saline as an intravenous bolus injection of 0.5 mg/kg followed by a continuous intravenous infusion of 1.0 mg/kg/hr for 40 min. Arterial blood samples were drawn for determination of plasma ranolazine concentration. Samples were obtained at 5, 10, 20, 30, 35 and 40 min after initiation of treatment. Ranolazine was measured by high performance liquid chromatography (HPLC) using mass spectral detection. Following the withdrawal of the final blood sample at 40 min, hemodynamic and angiographic measurements were repeated. Each animal served as its own control. Pre-treatment values were compared to post-treatment values using a two-tailed paired Student's t-test with significance set at p<0.05. Data are presented as the mean±standard error of the mean.

In data set [1] the test system is Patients, with or without congestive heart failure, with reproducible angina-limited exercise duration. As to the kind of experiment: Exercise treadmill tolerance testing (ETT), modified Bruce protocol, crossover versus placebo. In kind it is in vivo, human. The note with it: 500-1500 mg bid. The procedure:
Patients, with or without congestive heart failure were withdrawn from anti-anginal drugs with reproducible anginalimited exercise duration and >1 mm ST depression were randomized to Ran (500 mg bid, 1000 mg bit and 1500 mg bid) and matching placebo (Pbo) in a double-blind, four-period, Latin square crossover design. Exercise treadmill tolerance testing (ETT) was performed following a modified Bruce protocol, at trough (12 hr after dosing) and peak (4 hr after dosing) dosing times.

The nature of data set [2]: Solubility of ranolazine in aqueous solutions versus solution pH. Type of data set: physicochemical.
A short description of data set [3]: Ascending-dose SR bid study in healthy male volunteers, Day 5 pharmacokinetics of racemate and enantiomers. Type of data set: in vivo, human. The note with it: for concentration at 96 h / concentration at 108 h: male, human, plasma, oral; for concentration at 96 h: read-out: C96h; for concentration at 108 h: read-out: C108h; for Differences in pharmacokinetic parameters between enantiomers: multiple dosing with SR formulation. The method, then: This Example evaluated the safety and tolerability of administering racemic ranolazine free base formulations as in Example 3D. The individual and mean concentrations of racemic ranolazine and its enantiomers, (R)-(+)-N-(2,6-dimethylphenyl)-4-[2-hydroxy-3-(2 methoxyphenoxy)-propyl]-1-piperazineacetamide, (S)-(−)-N-(2,6-dimethylphenyl)-4-[2hydroxy-3-(2-methoxyphenoxy)-propyl]-1-piperazineacetamide in human plasma were also determined.
The study was performed with ascending doses of sustained release ranolazine dosage forms. Before and at intervals during and after the dosing period, blood samples were drawn for ranolazine assay and blood pressure, heart rate, ECG and symptoms were monitored throughout. Data summaries were reviewed after each phase before proceeding to the next phase of the study. Eight subjects, all healthy male volunteers aged between 18 and 40 entered and all completed the study and were available for pharmacokinetic and safety analysis. The subjects were each given doses of the various types of ranolazine free base in the form of sustained release tablets including 500 mg and 750 mg tablets or with matching placebo as necessary (2×750 mg size plus 1×500 mg size) to make unit oral doses of 1500 and 2000 mg.
In each phase: one dose bid for four days with a single dose on Day 5. On day 5 each volunteer underwent a full pharmacokinetic profile including supine and erect blood pressure (BP) and heart rate, ECG data, adverse events, clinical chemistry and hematology results, urinalysis results.
These tests were made using two-sided t-tests with estimates of variability from the ANOVA models. Steady state was also assessed by comparing means for C48 h, C72 h and C96 h using a mixed effects ANOVA model and untransformed and log, transformed data. For hemodynamic parameters, Day 1 pre-dose treatment means and Day 5 data were compared across treatments via two-sided t-tests using estimates of variability from mixed effects ANOVA models. Ninety and 95% confidence intervals were calculated for the treatment comparisons. No adjustments were made for multiple comparisons.

Data set [4] is described as follows: Arterial plasma ranolazine concentration in normal and heart failure dogs (HPLC-MS). In kind it is in vivo, dog. Conditions: for Average ranolazine concentration during the final 10 minutes of treatment: dihydrochloride iv bolus 0.5 mg/kg then 1.0 mg/kg/hr for 40 min, mean±SEM. The method, then:
In each normal or heart failure dog, ranolazine dihydrochloride was administered in saline as an intravenous bolus injection of 0.5 mg/kg followed by a continuous intravenous infusion of 1.0 mg/kg/hr for 40 min. Arterial blood samples were drawn for determination of plasma ranolazine concentration. Samples were obtained at 5, 10, 20, 30, 35 and 40 min after initiation of treatment. Ranolazine was measured by high performance liquid chromatography (HPLC) using mass spectral detection. Following the withdrawal of the final blood sample at 40 min, hemodynamic and angiographic measurements were repeated.

For `COc1ccccc1OCC(O)CN1CCN(CC(=O)Nc2c(C)cccc2C)CC1` (racemic) [ranolazine, (±)-N-(2,6-dimethylphenyl)-4-[2-hydroxy-3-(2-methoxyphenoxy)-propyl]-1-piperazineacetamide], in the data set with dogs with heart failure (post- vs pre-treatment), the “Effect on heart rate” value is “no significant effects”. For the same molecule, the “Effect on mean aortic pressure” value with dogs with heart failure (post- vs pre-treatment) was “no significant effects”. Besides, the LV ejection fraction entry in the data set on dogs with heart failure (post- vs pre-treatment) is on record as “significant increase”. Moreover, the “LV peak+dP/dt” value with dogs with heart failure (post- vs pre-treatment) is given as “significant increase”. For the same molecule, in the data set on dogs with heart failure (post- vs pre-treatment), the LV stroke volume entry is on record as “significant increase”. In addition, the “LV peak−dP/dt (diastolic function)” value in the data set with dogs with heart failure (data not shown) is reported as “increase”. For the same molecule, the “Effects vs. Pbo on rest or exercise blood pressure or heart rate” value in data set [1] is “no clinically meaningful effects”. In data set [1], the “Exercise duration times in comparison to the placebo” value is given as “improved”. Also, the “USP Solubility Class” value in data set [2] (Solution pH 4.81) is “Freely Soluble”; in data set [2] (Solution pH 4.89) it was “Soluble”; in data set [2] (Solution pH 4.90) it was “Soluble”; in data set [2] (Solution pH 5.04) it was “Soluble”; in data set [2] (Solution pH 5.35) it was “Sparingly Soluble”; in data set [2] (Solution pH 5.82), “Slightly soluble”. Also, the “USP Solubility Class” value is recorded as “Slightly soluble” in data set [2] (Solution pH 6.46); “Very slightly soluble” in data set [2] (Solution pH 6.73); “Very slightly soluble” in data set [2] (Solution pH 7.08); “Very slightly soluble” in data set [2] (Solution pH 7.59 (unbuffered water)); “Very slightly soluble” in data set [2] (Solution pH 7.79); “Very slightly soluble” in data set [2] (Solution pH 12.66). The “Solubility in aqueous solutions” value in data set [2] (pH above about 6.5) is reported as “relatively insoluble”. Also, the Cave in data set [3] (Day 5, 1500 mg SR bid) was determined as 4126 ± 1995 ng/mL; in data set [3] (Day 5, 2000 mg SR bid) it was 5705 ± 2153 ng/mL. The Cmin in data set [3] (Day 5, 1500 mg SR bid) was 2932 ± 1918 ng/mL; in data set [3] (Day 5, 2000 mg SR bid), 4149 ± 2228 ng/mL. The Degree of fluctuation in data set [3] (Day 5, 1500 mg SR bid) is given as 0.664 ± 0.336; in data set [3] (Day 5, 2000 mg SR bid), 0.591 ± 0.240. In data set [3] (SR bid dosing, ranolazine free base), the “Steady-state plasma levels attained by” value is at most 4 days. Also, the concentration at 96 h was determined as 3660 ± 1920 ng/mL in data set [3] (1500 mg SR bid) and 5040 ± 1800 ng/mL in data set [3] (2000 mg SR bid). Also, the figures for the concentration at 108 h in data set [3] (1500 mg SR bid) and in data set [3] (2000 mg SR bid) were 2940 ± 1940 ng/mL and 4400 ± 2400 ng/mL, respectively. Besides, the Average ranolazine concentration during the final 10 minutes of treatment was determined as 0.33 ± 0.04 µg/mL in data set [4] (dogs with heart failure) and 0.3 ± 0.02 µg/mL in data set [4] (normal dogs). Besides, in data set [4] (iv bolus plus infusion, dogs), the “Time by which arterial ranolazine levels stabilized following the bolus injection” value is at most 10 min.
On to `COc1ccccc1OC[C@H](O)CN1CCN(CC(=O)Nc2c(C)cccc2C)CC1` [(+)R ranolazine, (R)-(+)-N-(2,6-dimethylphenyl)-4-[2-hydroxy-3-(2 methoxyphenoxy)-propyl]-1-piperazineacetamide], for which, in data set [3] (Day 5, 1500 mg SR bid), the Cave was 2144 ± 1115 ng/mL, the Cmin turned out to be 1436 ± 1046 ng/mL and the Degree of fluctuation is listed as 0.833 ± 0.402. Also, in data set [3] (1500 mg SR bid), the concentration at 96 h came out at 2010 ± 1140 ng/mL and the concentration at 108 h is 1450 ± 1070 ng/mL. The “Differences in pharmacokinetic parameters between enantiomers” value in data set [3] is given as “no differences”.
In data set [3] (Day 5, 1500 mg SR bid), `COc1ccccc1OC[C@@H](O)CN1CCN(CC(=O)Nc2c(C)cccc2C)CC1` [(−)S ranolazine, (S)-(−)-N-(2,6-dimethylphenyl)-4-[2hydroxy-3-(2-methoxyphenoxy)-propyl]-1-piperazineacetamide] had a Cave of 2201 ± 1237 ng/mL, a Cmin of 1514 ± 1201 ng/mL and a Degree of fluctuation of 0.824 ± 0.443. In data set [3] (1500 mg SR bid), the concentration at 96 h was 2400 ± 1200 ng/mL and the concentration at 108 h stood at 1540 ± 1260 ng/mL. In data set [3], the “Differences in pharmacokinetic parameters between enantiomers” value is reported as “no differences”.
